Consider two compounds from US20060257432A1, “Pharmaceutical formulations of xanthogenates and inhibitors of viral nucelic acid replication” (priority 2003, published 2006).

Experiment [1] deals with herpes simplex virus (Type-1, strain ANG). Briefly: Plaque formation of herpes simplex virus in Calu-6 cells. Format: cell-based. To be noted: for number of plaques: Calu-6 cells, 48 h. Here is the method:
Human lung carcinoma cells (Calu-6) were infected with 30 plaque-forming units of herpes simplex virus (Type-1, strain ANG) in Linbro plates. Cell culture medium (MEM containing 10% fetal calf serum, 0.85 g/l sodium bicarbonate, and 0.5% carboxymethylcellulose) containing either 0, 5 or 10 μg/ml exo/exo-tricyclo[5,2,1,0^2,6]-9yl-xanthogenate (D609) was added two hours after infection. The cultures were treated with aciclovir at the same time. All samples were processed as quadruplicates. The cells were incubated for 48 h at 37° C. under CO2 gassing (5%). Then the medium was decanted, the cells were fixed with 3% formalin and stained with 0.5% crystal violet. After drying at room temperature, the number of plaques formed was determined.

For a further experiment, the system named is HSV-1 (Wal strain). The experiment in a line: Experimental skin infection of mice with HSV-1, ointment treatment. It is filed as in vivo, mice (Balb-C strain). To be noted: HSV-1-infected Balb-C mice, 5% ointment twice daily from day 4 after infection; for survival: 14 days, placebo: 3 of 10 survived. Here is the method: One part (by weight) D609, one part (by weight) potassium salt of decanoic acid, and four parts (by weight) cholesterol were mixed in a mortar. Subsequently, propyleneglycol (final concentration 10%) and vaseline were added such that the final concentration of D609 was 5%. The same procedure was used to produce ointments containing 5% aciclovir or 5% D609 and 5% aciclovir. A placebo ointment containing neither of the two agents was produced using the analogous procedure.
Ten mice (Balb-C strain) each were shaved on their upper leg and six scratches in the skin were made with a cannula in an area of 5×5 mm. Subsequently, a cotton bud was used to apply 50 μl of a HSV-1 suspension (Wal strain, 10^8 plaque-forming units/ml). The treatment (twice daily) was initiated four days after infection. The symptoms, “widespread lesions”, “hind leg paralysis”, and survival were recorded in the protocol.
The result is shown graphically in FIGS. 2a to 2d. […] Triangles indicate the surviving animals in each case, squares the animals with hind leg paralysis, and diamonds the animals with widespread lesions.

In turn, `S=C(S)OC1CC2CC1C1CCCC21` (stereo not drawn) [D609, exo/exo-tricyclo[5,2,1,0^2,6]-9yl-xanthogenate] showed a number of plaques in experiment [1] (5 μg/ml D609 alone, no-D609 control 32.75±11) of 32±3. In experiment [1] (10 μg/ml D609 alone, no-D609 control 32.75±11), the number of plaques worked out at 33±6. Also, the “effect on plaque formation” value in experiment [1] (D609 alone at 5 or 10 μg/ml) was “no effect”. Moreover, in the experiment on HSV-1 (Wal strain), the “healing of lesions and paralysis” value is “almost completely healed”; the survival result is reported as “survival rate higher”.
Turning to `Nc1nc2c(ncn2COCCO)c(=O)[nH]1` [aciclovir], the number of plaques in experiment [1] (aciclovir 0.16 μM alone, not statistically significant (p=0.4)) turned out to be 30±11. The “increase of the effect of aciclovir in cell culture” value in experiment [1] (in the presence of low, antivirally ineffective concentrations of the xanthogenate) was “increased up to five-fold”. For the same compound, in the experiment on HSV-1 (Wal strain), the “healing of lesions and paralysis” value was “almost completely healed”; the survival result is “survival rate higher”.
